This note sets out measurements from patent US20060122180A1, “Therapeutic treatment” (priority 2002, published 2006).

Holding throughout (type): cell-based, mouse
Common to all, as to conditions: MC-3T3.E1/J1 cells, serum starved, stimulated for 3 minutes

In experiment [1] the test system is phospho-p44/42 mitogen activated proteine kinase (MAPK) (Thr 202/204). Briefly: Western blot of p44/42 MAPK phosphorylation in growth-factor-stimulated MC3T3.E1/J1 osteoblastic cells. The text has this: (§1) The MC3T3. E1/J1 cell line was isolated from a parental cell line, MC3T3-E1 (available from Invitrogen), which had in turn been derived from newborn C57BL/6 mouse calvaria. The MC3T3 E1/J1 line is described as an osteoblastic line. Care is taken in culture not to use a medium with a pH greater than 7.5 or to allow the cells to become confluent, as this causes a de-differentiation to form a fibroblastic phenotype. This reversion to a fibroblastic phenotype is a common feature of osteoblastic cell cultures.
(§2) MC3T3.E1/J1 cells were routinely maintained in complete media (α-modified minimum essential medium eagle+10% foetal calf serum+1% glutamine+10% M1). MC3T3.E1/J1 cells were plated at 1.7×10^4 cells/well (24 well plates) in complete media and incubated at 37° C. in 5% CO2 for 48 hours. Cells were washed twice in phosphate buffered saline and re-incubated for approximately 17 hours in serum starvation media (α-modified minimum essential medium eagle+1% glutamine).
(§3) Cells were then stimulated with growth factor (ET-1 or EGF) for 3 minutes. All media was then removed and the cells lysed in 2× laemli buffer. Following electrophoresis and western blotting, membranes were probed with phospho-p44/42 mitogen activated proteine kinase (MAPK)^(Thr 202/204), phosphor-AKT^(Ser 473) and phospho-EGF Receptor^(tyr 1173) specific antibodies.

The subject of experiment [2] is phospho-EGF Receptor (tyr 1173). Briefly: Western blot of EGF receptor phosphorylation in growth-factor-stimulated MC3T3.E1/J1 osteoblastic cells.
Text: as §1, §2, §3

In a further experiment the test system is phosphor-AKT (Ser 473). As to the kind of experiment: Western blot of AKT phosphorylation in growth-factor-stimulated MC3T3.E1/J1 osteoblastic cells.
Text: as §1, §2, §3

Bridge positions count the residues as written; N and C are the ends. Ends that are not written are not given here.

Turning to “endothelin-1 (CSCSSLMDKECVYFCHLDIIW; disulfide 1-15, 3-11; ends not checked; UniProt P05305 53-73, looked up) [ET-1, endogenous 21 amino acid peptide, endothelin isoform, used as growth factor stimulus]”, the “p44/42 MAPK phosphorylation” value in experiment [1] is reported as “stimulates”.
Take “epidermal growth factor [EGF, growth factor used as stimulus]”: the “p44/42 MAPK phosphorylation” value in experiment [1] was “stimulates”. In experiment [2], the “EGFR tyr1173 phosphorylation” value is on record as “stimulates”. Further, the AKT phosphorylation result in the experiment with phosphor-AKT (Ser 473) is listed as “stimulates”.
